Values joined by “and” are separate entries in the source; they are usually repeats but may differ in a detail not shown here. Identical values can stand only once.
Tests used:
[1] = tested on: L. donovani 282/4 (Sb-sensitive) intracellular amastigotes; test: Intracellular amastigote assay, Sb-sensitive strain 282/4; type: cell-based, Leishmania donovani; settings: strain 282/4, Sb-sensitive; for IC50: Leishmania donovani; for Selectivity Index (SI50): macrophage CC50 / amastigote IC50
From the text: (§1) L. donovani cloned strains with different Sb susceptibility backgrounds were derived from isolates obtained from VL patients at the B.P. Koirala Institute of Health Sciences, Dharan, Nepal: MHOM/NP/02/BPK282/0cl4 (Sb sensitive, Sb-S). MHOM/NP/02/BPK087/0cl11 (Sb intermediate, Sb-I) and MHOM/NP/02/BPK275/0cl18 (Sb resistance, Sb-R [13]). In addition, Milt-resistant parasites raised against these three Sb sensitivity backgrounds and the Sb-sensitive strain (MHOM/ET/67:LV82) was also used in studies. Luciferase expressing promastigotes for the LV82 and Nepalese strains were prepared using previously published methods and the integrative construct (a gift from Dr D.F. Smith), designated pGL1313, contained pSSU-int fragments to facilitate integration into the ribosomal RNA locus of Leishmania.
(§2) In the macrophage studies, the method described in previous studies was used as follows. […] It is possible that intracellular macrophage parasites could have been at different developmental stages at 24 h post-infection. […] Therefore, we assumed that the effect of compounds on the amastigote stage rather than the promastigotes stage was determined in in vitro macrophage studies.
(§3) The plate was incubated for a further 24 h, the medium removed, and each well washed with PBS to eliminate non-internalized parasites, which were monitored microscopically. […] Wells with macrophage and with no drug or promastigotes added were used in control experiments.
(§4) Luciferin solution (1 µg/mL in 20 µL medium without FCS) was added to the appropriate wells of the 96-well plate at the end of the experiment and the amount of light emitted/well was measured using a luminometer (Biotek Synergy HT, relative light units) using a wavelength/bandwidth of 440/40 nm, or IVIS® imaging (Spectrum Living Image system®, total flux, photons/sec).
(§5) The effect of drug treatment on parasite survival was determined by calculating the mean suppression in the light emitted from the drug-treated experimental sample compared to the mean control value and used to calculate the IC50 using Grafit® software (version 5.0, Erithacus Software, East Grinstead, West Sussex, UK). The effect of drug alone on the viability of uninfected macrophages was determined using the same experimental protocol above, but cell viability was determined using an alamar blue colorimetric assay. […] The effect of drug treatment on cell survival, which correlates with the magnitude of dye reduction, was expressed as percentage viability (or alamar blue reduction) and determined using the formula provided in the manufacturer’s protocol % alamar blue reduction=(εoxλ)(Aλ1)−(εoxλ1)(Aλ2)/(εredλ1)(A^′λ2)−(εredλ2)(A^′λ1)x100

[2] = tested on: L. donovani LV82 intracellular amastigotes; test: Intracellular amastigote assay in bone-marrow-derived macrophages, strain LV82; type: cell-based, Leishmania donovani; settings: for IC50 / IC90: Leishmania donovani, Macrophage; for IC50: in Mus musculus, 72 h; for IC90: LV82; for Selectivity Index (SI50): macrophage CC50 / LV82 intracellular amastigote IC50
Protocol: as §2, §3, §4, §5

[3] = tested on: L. donovani 087/11 Milt-Sb-intermediate promastigotes; test: Promastigote luciferase assay, Milt-resistant 087/11; type: cell-based, Leishmania donovani; settings: for IC50: Leishmania donovani, read-out: Mean IC50 Value Promastigotes; for Cross-Resistance Index (CRI50) Promast / Promast: Amast Ratio: strain 087/11, Milt-Sb-intermediate
From the text: as §1
The anti-leishmanial activity of APC against L. donovani luciferase-expressing promastigotes was determined by adding of the appropriate 100 µL parasite line (10^6 cells/mL) to the wells of a 96-well plate and adding 100 µL medium alone (controls) or 100 µL of APC compound (0.01 µg/mL–6.25 µg/mL, n = 3/treatment). […].
as §4
(§6) The effect of drug treatment on parasite survival was determined by calculating the mean suppression in the light emitted from the drug-treated experimental sample compared to the mean control value and used to calculate the IC50 using Grafit® software (version 5.0, Erithacus Software, East Grinstead, West Sussex, UK). The effect of drug alone on the viability of uninfected macrophages was determined using the same experimental protocol above, but cell viability was determined using an alamar blue colorimetric assay. At the end of the incubation period, cells’ 10 µL resazurin solution (0.02% w/v) was added to control and drug treated cells and the absorbance of samples was read at 575 and 595 nm. The effect of drug treatment on cell survival, which correlates with the magnitude of dye reduction, was expressed as percentage viability (or alamar blue reduction) and determined using the formula provided in the manufacturer’s protocol % alamar blue reduction=(εoxλ)(Aλ1)−(εoxλ1)(Aλ2)/(εredλ1)(A^′λ2)−(εredλ2)(A^′λ1)x100
Cross resistance (CRI50) indexes were determined as Cross selectivity indices (CRI)=mean IC50 value for the relevant drug−resistant strain i.e., Sb−I or Sb−R / mean IC50 value drug−sensitive strain Sb−S

[4] = tested on: L. donovani LV82 promastigotes; test: Luciferase-expressing promastigote assay, strain LV82; type: cell-based, Leishmania donovani; settings: for Promast: Amast Ratio / IC90: LV82; for IC50 / IC90: Leishmania donovani; for IC50: 72 h
Protocol: (§7) The anti-leishmanial activity of APC against L. donovani luciferase-expressing promastigotes was determined by adding of the appropriate 100 µL parasite line (10^6 cells/mL) to the wells of a 96-well plate and adding 100 µL medium alone (controls) or 100 µL of APC compound (0.01 µg/mL–6.25 µg/mL, n = 3/treatment). The plate was incubated for 72 h at 25 °C. In combination assays, the additional compound/compounds, at a final concentration of 0.195 or 0.39 µg/mL, was added to the initial APC being tested.
as §4, §6

[5] = parameters: method as in Anatrace product description sheet; settings: critical micellar concentration; ref Anatrace product description sheet; cited from earlier work
[6] = tested on: L. donovani 282/4 (Sb-sensitive) promastigotes; test: Promastigote luciferase assay, Sb-sensitive strain 282/4; type: cell-based, Leishmania donovani; settings: strain 282/4, Sb-sensitive; for IC50: Leishmania donovani
From the text: as §1, §7, §4, §6

[7] = LV82, intracellular in BALB/c macrophages, 3 days, 37 °C

Compound | IC50 [1] | Selectivity Index (SI50) [1] | Amastigote mean IC50 [2, 7] | IC50 [2, 7] | IC90 [2] | fold more active than Milt (APC16) ([2]; intracellular amastigotes) | Selectivity Index (SI50) [2] | IC50 [3] | Cross-Resistance Index (CRI50) Promast [3] | Promast: Amast Ratio [3] | Promast: Amast Ratio [4] | Promastigotes mean IC50 ([4]; LV82, 3 days, 25 °C) | IC50 ([4]; LV82, 3 days, 25 °C) | IC90 [4] | fold more active than Milt (APC16) ([4]; promastigotes) | CMC [5] | IC50 [6] | Promast: Amast Ratio [6]
CCCCCCCCCCCCOP(=O)([O-])OCC[N+](C)(C)C [APC12, dodecylphosphocholine] | 0.26 µg/mL and 740 nM | 136.08 | 0.01 ± 0.00 µg/mL | 0.009 µg/mL and 26 nM | 0.081 ± 0.01 µg/mL | 4 fold | 3870.77 | 184 µg/mL and 520 µM | > 1.47 | 29.82 | 16.46 | 0.16 ± 0.00 µg/mL | 0.163 µg/mL and 460 nM | 1.47 µg/mL | 10 fold | 351.50 µg/mL | 0.55 µg/mL and 1.56 µM | 2.09
CCCCCCCCCCCCCCOP(=O)([O-])OCC[N+](C)(C)C [APC14, tetradecylphosphocholine] | 0.12 µg/mL and 320 nM | 340.75 | – | 0.03 µg/mL and 66 nM | – | – | 1632.58 | 232 µg/mL and 630 µM | > 1.86 | 23.13 | 7.97 | – | 0.2 µg/mL and 530 nM | – | – | 45.54 µg/mL | 0.44 µg/mL and 1.16 µM | 3.64
CCCCCCCCCCCCCCCCOP(=O)([O-])OCC[N+](C)(C)C [APC16, hexadecylphosphocholine, reference compound] | 0.31 µg/mL and 760 nM | – | – | 0.1 µg/mL and 250 nM | 0.9 ± 0.016 µg/mL | – | – | 242 µg/mL and 560 µM | – | 19.13 | 7.00 | – | 0.7 µg/mL and 1.72 µM | 6.3 ± 0.1 µg/mL | – | 0.41 µg/mL | 0.84 µg/mL and 2.06 µM | 2.68

From publication PMC7463460, “Structure and Antiparasitic Activity Relationship of Alkylphosphocholine Analogues against Leishmania donovani” (Microorganisms, 2020)
